The supplement of paper PMC10307832

Key:
Assay in all cases: relative viability (nuclei count vs DMSO), 5 days (fraction); higher = more cells survive
[1] = compound: COC1=CC(c2cc3ccccc3[nH]2)=N/C1=C\c1[nH]c(C)cc1C [Obatoclax] + CC(=O)c1c(C)c2cnc(Nc3ccc(N4CCNCC4)cn3)nc2n(C2CCCC2)c1=O [Palbociclib] (partner 0.5 µM)
Procedure, shortened: (§1)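 Five library-drug doses in √10 steps were combined with a fixed anchor-drug dose, or a single drug was given alone, by pin tool to lung cancer cell lines in 1536-well plates the day after seeding. Nuclei were stained and counted after 5 days. Relative viability is the nuclei count in treated wells over that in vehicle wells, taken as the median of duplicate plates.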

[2] = compound: COC1=CC(c2cc3ccccc3[nH]2)=N/C1=C\c1[nH]c(C)cc1C [Obatoclax] + CC(=O)Nc1cccc(-n2c(=O)n(C3CC3)c(=O)c3c(Nc4ccc(I)cc4F)n(C)c(=O)c(C)c32)c1 [Trametinib] (partner 0.02 µM)
Procedure, shortened: as §1

[3] = compound: CC(C)C[C@H](NC(=O)[C@H](Cc1ccccc1)NC(=O)c1cnccn1)B(O)O [Bortezomib] + COc1cccc2cc(-c3nc([C@H]4CC[C@H](C(=O)O)CC4)n4ncnc(N)c34)[nH]c12 [OSI-027] (partner 0.5 µM)
Procedure, shortened: as §1

[4] = compound: COC1=CC(c2cc3ccccc3[nH]2)=N/C1=C\c1[nH]c(C)cc1C [Obatoclax] + C[C@]1(O)C[C@@H](c2nc(-c3ccc4ccc(-c5ccccc5)nc4c3)c3c(N)nccn32)C1 [Linsitinib] (partner 1 µM)
Procedure, shortened: as §1

Cell Line	relative viability ([1]; first compound 0.01 µM)	relative viability ([1]; first compound 0.03162 µM)	relative viability ([1]; first compound 0.1 µM)	relative viability ([1]; first compound 0.3162 µM)	relative viability ([1]; first compound 1 µM)	relative viability ([2]; first compound 0.01 µM)	relative viability ([2]; first compound 0.03162 µM)	relative viability ([2]; first compound 0.1 µM)	relative viability ([2]; first compound 0.3162 µM)	relative viability ([2]; first compound 1 µM)	relative viability ([3]; first compound 0.0002 µM)	relative viability ([3]; first compound 0.000632 µM)	relative viability ([3]; first compound 0.002 µM)	relative viability ([3]; first compound 0.006325 µM)	relative viability ([3]; first compound 0.02 µM)	relative viability ([4]; first compound 0.01 µM)	relative viability ([4]; first compound 0.03162 µM)	relative viability ([4]; first compound 0.1 µM)	relative viability ([4]; first compound 0.3162 µM)	relative viability ([4]; first compound 1 µM)
NCI-H3122	0.185	0.185	0.277	0.224	0.179	0.251	0.215	0.241	0.205	0.212	0.993	1.03	0.935	0.206	0.133	1.01	1.02	1.04	0.97	1.01
PC-3 [JPC-3]	0.497	0.515	0.503	0.406	0.33	0.643	0.71	0.621	0.667	0.47	0.807	0.824	0.806	0.446	0.122	0.947	0.936	0.963	0.989	0.898
PC-14	0.453	0.489	0.411	0.0534	0.055	0.719	0.665	0.513	0.104	0.0647	–	0.765	0.714	0.033	0.0438	0.911	1.01	0.892	0.902	0.58
RERF-LC-KJ	0.909	1.06	1.09	0.957	0.892	0.888	0.834	0.835	0.869	0.769	0.581	0.547	0.555	0.216	0.24	0.884	0.947	0.871	0.868	0.808
SK-LU-1	0.367	0.419	0.352	0.326	0.317	0.454	0.568	0.447	0.414	0.311	0.336	0.286	0.319	0.125	0.122	1.18	1.17	0.834	0.496	0.419
SK-MES-1	0.295	0.329	0.247	0.181	0.203	0.635	0.572	0.713	0.554	0.319	0.64	0.591	0.47	0.14	0.128	0.991	1.1	1.09	0.98	0.687
SW 1573	0.379	0.35	0.298	0.118	0.133	0.669	0.606	0.346	0.144	0.152	0.658	0.665	0.234	0.0635	0.0625	0.768	0.832	0.803	0.801	0.81
UMC-11	0.373	0.346	0.33	0.322	0.373	0.669	0.674	0.466	0.643	0.393	0.461	0.472	0.493	0.325	0.148	1.04	0.875	0.981	0.81	0.885
